1 substance from patent publication US9510521B2, “Use of abscisic acid to alter sensory characteristics of red grapes and wine” (Valent BioSciences Corporation, priority 2007, dated 2016) can be followed below.

Assay [1] deals with Shiraz grapes. Put plainly: Foliar S-ABA on Shiraz grapes about 3 weeks before veraison: grape quality at harvest and wine quality. Type of assay: in vivo. The conditions noted are these: 200 ppm foliar spray approx. 3 weeks prior to veraison. Here is the method: (§1) S-ABA (200 ppm) was applied by foliar spray using a standard vineyard airblast sprayer at 2000 L/ha to commercially grown Shiraz grapes approximately 3 weeks prior to initiation of veraison. The spray mix contained the surfactant/wetter Agral at 10 ml/100 L. Results reported are means of 4 replicates (grapes) and 3 replicates (wines) per treatment. Winemaking followed a standard small lot fermentation protocol with each replicate wine being made from 50 kg of harvested grapes.
However, at-harvest grape anthocyanin and wine color density and total phenolics are increased by S-ABA.

Assay [2] deals with Shiraz grapes. The assay is described as follows: Sensory profile of Shiraz wine from S-ABA-treated fruit, 10 experienced sensory assessors. Type of assay: in vivo, grape. The conditions noted are these: 200 ppm foliar spray, 10 assessors. How it is done: as §1
Using a nine-point hedonic scale rating (dislike=1 to like=9) the sensors judged wine from the S-ABA treatment higher than the untreated (6.2 vs. 5.0, respectively) and thus a technically better wine.

Assay [3] concerns Cabernet Sauvignon grapes. Put plainly: Sensory panel rating of Cabernet Sauvignon wine from S-ABA treatment. Format: in vivo, grape. As to conditions: 1-5 scale, 1 = low/short, 5 = high/long. How it is done: S-ABA (200 ppm) was applied by foliar spray to Cabernet Sauvignon grapes when sugar levels were approximately 11 Be using a standard vineyard airblast sprayer at approximately 2000 L/ha. The spray mix contained the surfactant/wetter Agral at 10 ml/100 L. Wine was prepared from the treated and untreated grapes.

Assay [4] has as its system Shiraz grapes. Put plainly: Sensory panel of 6 assessors, Shiraz wine, drip irrigation S-ABA. Format: in vivo, grape. As to conditions: 0.4 grams per vine via drip irrigation. How it is done: S-ABA (0.4 grams per vine) was applied to commercially grown Shiraz grapes through the drip irrigation system at approximately 3 weeks prior to initiation of veraison. No surfactant was added to the irrigation water. Results reported are means of 3 replicates. Winemaking followed a standard small lot fermentation protocol with each replicate wine being made from 50 kg of harvested grapes.
Table 5 illustrates that S-ABA increased anthocyanin and phenolics of grape/juice at crush and wine color density and total phenolics and reduced wine hue. S-ABA had no effect on sugar, pH, or total acidity of grapes/juice at crush or on alcohol or pH of wine.

In assay [5] the test system is Shiraz grapes. Put plainly: Sensory panel of 6 assessors, Shiraz wine, foliar S-ABA at veraison. As to conditions: 200 ppm foliar spray at veraison. Type of assay: in vivo, grape. Here is the method:
S-ABA (200 ppm) was applied by foliar spray at veraison to commercially grown Shiraz grapes through standard agricultural spray equipment on 12 Jan. 2007. Kendeen 20 (Tween 20) was added to the spray mix at 50 ml/100 L. Reported results are means of 3 replicates. Winemaking followed a standard small lot fermentation protocol with each replicate wine being made from 50 kg of harvested grapes.

“(S)-5-(1-hydroxy-2,6,6,-trimethyl-4-oxo-2-cyclohexen-1-yl)-3-methyl-(2Z,4E)-pentadienoic acid [S-ABA]”: the Wine hue in assay [1] came to 0.56. In addition, in assay [2] (Shiraz wine sensory profile), the Aroma result was “more intense berry aroma”; the Color entry is on record as “Increased intensity”; the Taste result is given as “more fruity, more acidic taste”. Moreover, the “Hedonic scale (1-dislike, 9 like)” value in assay [2] (Shiraz wine, nine-point hedonic scale) was 6.2. Besides, in assay [3], the Body/fullness turned out to be 1.7 and the Flavor intensity is reported as 2.7. Also, the “Sensory panel of 6 assessors” value in assay [4] was “more intense fruit and was less acidic”. The “Sensory panel of 6 assessors” value in assay [5] is “more intense fruit, spice and herbaceous flavors and more tannin”.
